Experimental data from BigSolDB 2.1.

Structure (SMILES): CCc1nnc(NC(=O)CCCCCNC(C)=O)s1
- solubility (mole fraction) (in ethanol, 288.15 K): 0.000578
- solubility (mole fraction) (in ethanol, 293.15 K): 0.000733
- solubility (mole fraction) (in ethanol, 298.15 K): 0.000965
- solubility (mole fraction) (in ethanol, 303.15 K): 0.00118
- solubility (mole fraction) (in ethanol, 308.15 K): 0.00162
- solubility (mole fraction) (in ethanol, 313.15 K): 0.0021
- solubility (mole fraction) (in ethanol, 318.15 K): 0.0026
- solubility (mole fraction) (in n-hexane, 288.15 K): 1.54e-05
- solubility (mole fraction) (in n-hexane, 293.15 K): 1.81e-05
- solubility (mole fraction) (in n-hexane, 298.15 K): 2.15e-05
- solubility (mole fraction) (in n-hexane, 303.15 K): 2.47e-05
- solubility (mole fraction) (in n-hexane, 308.15 K): 3.05e-05
- solubility (mole fraction) (in n-hexane, 313.15 K): 3.55e-05
- solubility (mole fraction) (in n-hexane, 318.15 K): 4.13e-05
- solubility (mole fraction) (in n-octanol, 288.15 K): 0.000685
- solubility (mole fraction) (in n-octanol, 293.15 K): 0.000814
- solubility (mole fraction) (in n-octanol, 298.15 K): 0.000961
- solubility (mole fraction) (in n-octanol, 303.15 K): 0.00113
- solubility (mole fraction) (in n-octanol, 308.15 K): 0.00142
- solubility (mole fraction) (in n-octanol, 313.15 K): 0.00167
- solubility (mole fraction) (in n-octanol, 318.15 K): 0.00194
